{"source": "patent US20150051206A1", "about": "“COMPOUNDS AND COMPOSITIONS AS C-KIT KINASE INHIBITORS” (IRM LLC, priority 2011, published 2015)"}
{"molecular_target": "T1, c-kit (Homo sapiens, UniProt P10721)", "T1 construct": "human Mo7e cells which endogenously express c-kit; endogenous in cells; host or cells: human Mo7e cells (promegakaryocytic leukemia line), stimulated with human recombinant SCF", "T1 sequence (P10721 26-976)": "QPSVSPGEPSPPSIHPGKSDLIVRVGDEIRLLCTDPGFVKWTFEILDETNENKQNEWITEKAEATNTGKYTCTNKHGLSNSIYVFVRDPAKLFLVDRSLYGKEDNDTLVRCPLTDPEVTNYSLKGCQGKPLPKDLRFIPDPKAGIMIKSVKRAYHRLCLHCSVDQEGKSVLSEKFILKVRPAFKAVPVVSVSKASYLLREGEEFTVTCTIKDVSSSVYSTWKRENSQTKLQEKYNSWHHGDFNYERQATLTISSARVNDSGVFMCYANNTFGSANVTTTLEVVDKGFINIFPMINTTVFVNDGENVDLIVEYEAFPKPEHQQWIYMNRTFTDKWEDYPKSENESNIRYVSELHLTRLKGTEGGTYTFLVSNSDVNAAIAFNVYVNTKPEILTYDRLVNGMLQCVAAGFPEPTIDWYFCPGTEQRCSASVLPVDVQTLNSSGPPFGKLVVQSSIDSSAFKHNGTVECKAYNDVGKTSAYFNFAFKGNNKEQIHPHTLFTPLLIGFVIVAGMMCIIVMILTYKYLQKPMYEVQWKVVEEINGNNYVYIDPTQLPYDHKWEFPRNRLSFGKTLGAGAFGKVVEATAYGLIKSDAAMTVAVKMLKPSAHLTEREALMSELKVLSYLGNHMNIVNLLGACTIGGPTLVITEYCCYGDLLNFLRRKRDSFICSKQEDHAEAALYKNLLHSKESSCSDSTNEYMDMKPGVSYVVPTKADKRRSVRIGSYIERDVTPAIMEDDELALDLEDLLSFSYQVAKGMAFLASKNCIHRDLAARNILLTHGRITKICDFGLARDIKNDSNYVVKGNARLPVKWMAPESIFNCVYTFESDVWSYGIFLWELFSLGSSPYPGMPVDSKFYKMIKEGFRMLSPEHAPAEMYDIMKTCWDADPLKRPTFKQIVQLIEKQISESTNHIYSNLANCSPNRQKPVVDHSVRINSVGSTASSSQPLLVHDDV", "test": "Mo7e cell proliferation assay (SCF dependent proliferation)", "type": "cell-based", "settings": "Table 1; Mo7e cells stimulated with human recombinant SCF, 48 hours; 1% FBS", "description": "(§1) Compounds of Formula (I) and Formula (II) provided herein were assayed to measure their capacity to inhibit c-kit and PDGFR kinases using the appropriate assay described below: c-Kit inhibition was evaluated using the Mo7e cell proliferation assay, and PDGFR inhibition was evaluated using the Rat A10 cell proliferation assay and the Human TG/HA-VSMC cell proliferation assay.\n(§2) The compounds of Table 1 and Table 2 were tested for inhibition of SCF dependent proliferation using human Mo7e cells which endogenously express c-kit in a 384 well format. […] After 48 hours of incubation at 37° C., cell viability was measured by adding 25 uL of CellTiter Glo (Promega) to the cells and the luminescence was measured by a CLIPR CCD camera (Molecular Devices).\n(§3) The IC50 value is given as that concentration of the test compound in question that provoke a response halfway between the baseline and maximum responses.", "units": {"IC50": "nM"}}
{"smiles": "Cc1ccc(-c2nc(Nc3ccccc3)no2)cc1NC(=O)c1cnc2ccccn12", "note": "[F1, N-(2-methyl-5-(3-(phenylamino)-1,2,4-oxadiazol-5-yl)phenyl)imidazo[1,2-a]pyridine-3-carboxamide]", "IC50": 51}
{"smiles": "Cc1ccc(-c2nc(-c3ccccc3)no2)cc1NC(=O)c1cnc2ccccn12", "note": "[F2, N-[2-methyl-5-(3-phenyl-1,2,4-oxadiazol-5-yl)phenyl]imidazo[1,2-a]pyridine-3-carboxamide]", "IC50": 16}
{"smiles": "Cc1ccc(-c2nc(-c3cccc(OC(F)(F)F)c3)no2)cc1NC(=O)c1cnc2ccccn12", "note": "[F6, N-(2-methyl-5-{3-[3-(trifluoromethoxy)phenyl]-1,2,4-oxadiazol-5-yl}phenyl)imidazo[1,2-a]pyridine-3-carboxamide]", "IC50": 89}
{"smiles": "Cc1ccc(-c2nc(-c3cccc(C(F)(F)F)c3)no2)cc1NC(=O)c1cnc2ccccn12", "note": "[F7, N-(2-methyl-5-{3-[3-(trifluoromethyl)phenyl]-1,2,4-oxadiazol-5-yl}phenyl)imidazo[1,2-a]pyridine-3-carboxamide]", "IC50": 69}
{"smiles": "Cc1ccc(-c2nc(Cc3ccccc3F)no2)cc1NC(=O)c1cnc2ccccn12", "note": "[F9, N-(5-{3-[(2-fluorophenyl)methyl]-1,2,4-oxadiazol-5-yl}-2-methylphenyl)imidazo[1,2-a]pyridine-3-carboxamide]", "IC50": 9}
{"smiles": "Cc1ccnc(-c2noc(-c3ccc(C)c(NC(=O)c4cnc5ccccn45)c3)n2)c1", "note": "[F10, N-{2-methyl-5-[3-(4-methylpyridin-2-yl)-1,2,4-oxadiazol-5-yl]phenyl}imidazo[1,2-a]pyridine-3-carboxamide]", "IC50": 24}
{"smiles": "Cc1ccc(-c2noc(-c3ccccn3)n2)cc1NC(=O)c1cnc2ccccn12", "note": "[F11, N-(2-methyl-5-(5-(pyridin-2-yl)-1,2,4-oxadiazol-3-yl)phenyl)imidazo[1,2-a]pyridine-3-carboxamide]", "IC50": 75}
{"smiles": "Cc1ccc(Nc2noc(-c3ccnc(N4CCOCC4)c3)n2)cc1NC(=O)c1cnc2ccccn12", "note": "[F12, N-[2-methyl-5-({5-[2-(morpholin-4-yl)pyridin-4-yl]-1,2,4-oxadiazol-3-yl}amino)phenyl]imidazo[1,2-a]pyridine-3-carboxamide]", "IC50": 40}
{"smiles": "Cc1ccc(Nc2noc(-c3cccc(N4CCN(C)CC4)c3)n2)cc1NC(=O)c1cnc2ccccn12", "note": "[F13, N-[2-methyl-5-({5-[3-(4-methylpiperazin-1-yl)phenyl]-1,2,4-oxadiazol-3-yl}amino)phenyl]imidazo[1,2-a]pyridine-3-carboxamide]", "IC50": 71}
{"smiles": "Cc1ccc(Nc2noc(-c3cccc(N4CCOCC4)c3)n2)cc1NC(=O)c1cnc2ccccn12", "note": "[F14, N-[2-methyl-5-({5-[3-(morpholin-4-yl)phenyl]-1,2,4-oxadiazol-3-yl}amino)phenyl]imidazo[1,2-a]pyridine-3-carboxamide]", "IC50": 29}
{"smiles": "Cc1ccc(Nc2noc(-c3cscn3)n2)cc1NC(=O)c1cnc2ccccn12", "note": "[F15, N-(2-methyl-5-{[5-(1,3-thiazol-4-yl)-1,2,4-oxadiazol-3-yl]amino}phenyl)imidazo[1,2-a]pyridine-3-carboxamide]", "IC50": 6}
{"smiles": "Cc1ccc(Nc2noc(-c3nccn3C)n2)cc1NC(=O)c1cnc2ccccn12", "note": "[F16, N-(2-methyl-5-{[5-(1-methyl-1H-imidazol-2-yl)-1,2,4-oxadiazol-3-yl]amino}phenyl)imidazo[1,2-a]pyridine-3-carboxamide]", "IC50": 27}
{"smiles": "Cc1ccc(-c2nc(Nc3ccc(C)c(NC(=O)c4cnc5ccccn45)c3)no2)cn1", "note": "[F17, N-(2-methyl-5-{[5-(6-methylpyridin-3-yl)-1,2,4-oxadiazol-3-yl]amino}phenyl)imidazo[1,2-a]pyridine-3-carboxamide]", "IC50": 2}
{"smiles": "Cc1ccc(Nc2noc(-c3cnccn3)n2)cc1NC(=O)c1cnc2ccccn12", "note": "[F18, N-(2-methyl-5-{[5-(pyrazin-2-yl)-1,2,4-oxadiazol-3-yl]amino}phenyl)imidazo[1,2-a]pyridine-3-carboxamide]", "IC50": 9}
{"smiles": "Cc1ccc(Nc2noc(-c3ncccn3)n2)cc1NC(=O)c1cnc2ccccn12", "note": "[F19, N-(2-methyl-5-{[5-(pyrimidin-2-yl)-1,2,4-oxadiazol-3-yl]amino}phenyl)imidazo[1,2-a]pyridine-3-carboxamide]", "IC50": 82}
{"smiles": "Cc1ccc(Nc2noc(-c3ccccc3)n2)cc1NC(=O)c1cnc2ccccn12", "note": "[F20, N-{2-methyl-5-[(5-phenyl-1,2,4-oxadiazol-3-yl)amino]phenyl}imidazo[1,2-a]pyridine-3-carboxamide]", "IC50": 10}
{"smiles": "Cc1ccc(Nc2noc(-c3ccccn3)n2)cc1NC(=O)c1cnc2ccccn12", "note": "[F21, N-(2-methyl-5-{[5-(pyridin-2-yl)-1,2,4-oxadiazol-3-yl]amino}phenyl)imidazo[1,2-a]pyridine-3-carboxamide]", "IC50": 8}
{"smiles": "Cc1nc(-c2nc(-c3ccc(C)c(NC(=O)c4cnc5ccccn45)c3)no2)c(C(F)(F)F)o1", "note": "[F22, N-(2-methyl-5-{5-[2-methyl-5-(trifluoromethyl)-1,3-oxazol-4-yl]-1,2,4-oxadiazol-3-yl}phenyl)imidazo[1,2-a]pyridine-3-carboxamide]", "IC50": 32}
{"smiles": "Cc1nc(C(F)(F)F)c(-c2nc(-c3ccc(C)c(NC(=O)c4cnc5ccccn45)c3)no2)s1", "note": "[F23, N-(2-methyl-5-{5-[2-methyl-4-(trifluoromethyl)-1,3-thiazol-5-yl]-1,2,4-oxadiazol-3-yl}phenyl)imidazo[1,2-a]pyridine-3-carboxamide]", "IC50": 61}
{"molecular_target": "T1, c-kit", "test": "Mo7e cell proliferation assay (SCF dependent proliferation)", "type": "cell-based", "settings": "Table 1; Mo7e cells stimulated with human recombinant SCF, 48 hours; 20% FBS (values marked *)", "description": "as §1, §2, §3", "units": {"IC50": "nM"}}
{"smiles": "Cc1ccc(-c2nc(Cc3ccccc3)no2)cc1NC(=O)c1cnc2ccccn12", "note": "[F3, N-[5-(3-benzyl-1,2,4-oxadiazol-5-yl)-2-methylphenyl]imidazo[1,2-a]pyridine-3-carboxamide]", "IC50": 65}
{"smiles": "Cc1ccc(-c2nc(-c3cnccc3C(F)(F)F)no2)cc1NC(=O)c1cnc2ccccn12", "note": "[F4, N-(2-methyl-5-{3-[4-(trifluoromethyl)pyridin-3-yl]-1,2,4-oxadiazol-5-yl}phenyl)imidazo[1,2-a]pyridine-3-carboxamide]", "IC50": 23}
{"smiles": "Cc1ccc(-c2nc(-c3ccc4c(c3)CCO4)no2)cc1NC(=O)c1cnc2ccccn12", "note": "[F5, N-{5-[3-(2,3-dihydro-1-benzofuran-5-yl)-1,2,4-oxadiazol-5-yl]-2-methylphenyl}imidazo[1,2-a]pyridine-3-carboxamide]", "IC50": 73}
{"smiles": "CCOc1cccc(-c2noc(-c3ccc(C)c(NC(=O)c4cnc5ccccn45)c3)n2)c1", "note": "[F8, N-{5-[3-(3-ethoxyphenyl)-1,2,4-oxadiazol-5-yl]-2-methylphenyl}imidazo[1,2-a]pyridine-3-carboxamide]", "IC50": 66}
{"molecular_target": "T1, c-kit", "test": "Mo7e cell proliferation assay (SCF dependent proliferation)", "type": "cell-based", "settings": "Table 2; Mo7e cells stimulated with human recombinant SCF, 48 hours; 1% FBS", "description": "as §1, §2, §3", "units": {"IC50": "nM"}}
{"smiles": "Cc1ccc(-c2nc(-c3ccccn3)no2)cc1NC(=O)c1cnc2ccccn12", "note": "[F24, N-(2-methyl-5-(3-(pyridin-2-yl)-1,2,4-oxadiazol-5-yl)phenyl)imidazo[1,2-a]pyridine-3-carboxamide]", "IC50": 137}
{"smiles": "Cc1cccc(-c2noc(-c3ccc(C)c(NC(=O)c4cnc5ccccn45)c3)n2)n1", "note": "[F28, N-(2-methyl-5-(3-(6-methylpyridin-2-yl)-1,2,4-oxadiazol-5-yl)phenyl)imidazo[1,2-a]pyridine-3-carboxamide]", "IC50": 252}
{"smiles": "Cc1ccc(-c2nc(-c3ccc(C(F)(F)F)cc3)no2)cc1NC(=O)c1cnc2ccccn12", "note": "[F31, N-(2-methyl-5-{3-[4-(trifluoromethyl)phenyl]-1,2,4-oxadiazol-5-yl}phenyl)imidazo[1,2-a]pyridine-3-carboxamide]", "IC50": 1040}
{"molecular_target": "T1, c-kit", "test": "Mo7e cell proliferation assay (SCF dependent proliferation)", "type": "cell-based", "settings": "Table 2; Mo7e cells stimulated with human recombinant SCF, 48 hours; 20% FBS instead of 1% FBS (values marked *)", "description": "as §1, §2, §3", "units": {"IC50": "nM"}}
{"smiles": "Cc1ccc(-c2nc(-c3cnccn3)no2)cc1NC(=O)c1cnc2ccccn12", "note": "[F25, N-{2-methyl-5-[3-(pyrazin-2-yl)-1,2,4-oxadiazol-5-yl]phenyl}imidazo[1,2-a]pyridine-3-carboxamide]", "IC50": 424}
{"smiles": "Cc1ccc(-c2nc(-c3c(Cl)cccc3Cl)no2)cc1NC(=O)c1cnc2ccccn12", "note": "[F26, N-{5-[3-(2,6-dichlorophenyl)-1,2,4-oxadiazol-5-yl]-2-methylphenyl}imidazo[1,2-a]pyridine-3-carboxamide]", "IC50": 845}
{"smiles": "Cc1ccc(-c2nc(-c3ccc(Cl)cc3)no2)cc1NC(=O)c1cnc2ccccn12", "note": "[F27, N-{5-[3-(4-chlorophenyl)-1,2,4-oxadiazol-5-yl]-2-methylphenyl}imidazo[1,2-a]pyridine-3-carboxamide]", "IC50": 274}
{"smiles": "Cc1ccc(-c2nc(-c3ncccc3F)no2)cc1NC(=O)c1cnc2ccccn12", "note": "[F29, N-{5-[3-(3-fluoropyridin-2-yl)-1,2,4-oxadiazol-5-yl]-2-methylphenyl}imidazo[1,2-a]pyridine-3-carboxamide]", "IC50": 205}
{"smiles": "Cc1ccc(-c2nc(-c3ccc(C(F)(F)F)cn3)no2)cc1NC(=O)c1cnc2ccccn12", "note": "[F30, N-(2-methyl-5-{3-[5-(trifluoromethyl)pyridin-2-yl]-1,2,4-oxadiazol-5-yl}phenyl)imidazo[1,2-a]pyridine-3-carboxamide]", "IC50": 359}
{"smiles": "Cc1ccc(-c2nc(COc3ccccc3)no2)cc1NC(=O)c1cnc2ccccn12", "note": "[F32, N-{2-methyl-5-[3-(phenoxymethyl)-1,2,4-oxadiazol-5-yl]phenyl}imidazo[1,2-a]pyridine-3-carboxamide]", "IC50": 249}
{"smiles": "COc1ccnc(-c2noc(-c3ccc(C)c(NC(=O)c4cnc5ccccn45)c3)n2)c1", "note": "[F33, N-{5-[3-(4-methoxypyridin-2-yl)-1,2,4-oxadiazol-5-yl]-2-methylphenyl}imidazo[1,2-a]pyridine-3-carboxamide]", "IC50": 265}
{"smiles": "Cc1ccc(-c2nc(-c3cnccc3C)no2)cc1NC(=O)c1cnc2ccccn12", "note": "[F34, N-{2-methyl-5-[3-(4-methylpyridin-3-yl)-1,2,4-oxadiazol-5-yl]phenyl}imidazo[1,2-a]pyridine-3-carboxamide]", "IC50": 139}
